From patent US20200247897A1, “THERAPEUTIC ANTIBODIES BASED ON MUTATED IGG HEXAMERS” (GENMAB B.V., priority 2017, published 2020)

Tested on: panel of 235 cell lines representing 14 tumor lineages
Assay: ATPlite growth inhibition screening of a human cancer cell line panel (Horizon Discovery)
Assay type: cell-based
Method: A 72 hour ATPlite assay (except for DLD-1 and HCT116 cell lines, for which a 120 hour assay was performed) with growth inhibition analysis was performed in two parts at Horizon Discovery Ltd, UK. Samples were tested as four replicates in 384-well assay plates. Serial dilution series of antibody, starting from 0.072 μM final concentration was used for all tested cell lines. For TRAIL (Invitrogen; Cat # PHC1634) serial dilution series starting from 0.01 μM final concentration for the cell lines tested in the first part and 0.17 μM final concentration for the cell lines tested in the second part of the screening was used.

[1] = 59M, ovary cancer, screening #1
[2] = 769-P, kidney cancer, screening #2
[3] = 786-0, kidney cancer, screening #2
[4] = 5637, bladder cancer, screening #2
[5] = A172, neural tissue cancer, screening #2
[6] = ACHN, kidney cancer, screening #2
[7] = CAL-54, kidney cancer, screening #1
[8] = COLO-783, melanoma, screening #1
[9] = COR-L23-CPR, NSCLC, screening #1
[10] = COV434, ovary cancer, screening #1
[11] = COV644, ovary cancer, screening #1
[12] = G-402, kidney cancer, screening #2
[13] = HCC1937, breast cancer (TNBC), screening #2
[14] = HT-1197, bladder cancer, screening #2
[15] = HT-1376, bladder cancer, screening #2
[16] = Hs 294T, melanoma, screening #1
[17] = HuP-T3, pancreatic cancer, screening #1
[18] = J82, bladder cancer, screening #1
[19] = JHOM-1, ovary cancer, screening #1

IC50 [1]: 0.049 nM
IC50 [2]: 1.94 nM
IC50 [3]: 288 nM
IC50 [4]: 0.06 nM
IC50 [5]: 0.029 nM
IC50 (A498, kidney cancer, screening #2): 0.079 nM
IC50 (A704, kidney cancer, screening #1): 3.44 nM
IC50 [6]: 0.356 nM
IC50 (BT-20, breast cancer (TNBC), screening #2): 0.089 nM
IC50 (BT-549, breast cancer (TNBC), screening #2): 0.285 nM
IC50 [7]: 0.268 nM
IC50 (CL-11, colorectal cancer, screening #1): 1.32 nM
IC50 (CL-34, colorectal cancer, screening #1): 0.024 nM
IC50 (CL-40, colorectal cancer, screening #1): 1.98 nM
IC50 (COLO-201, colorectal cancer, screening #1): 0.168 nM
IC50 (COLO-205, colorectal cancer, screening #1): 2.27 nM
IC50 (COLO-206F, colorectal cancer, screening #1): 0.146 nM
IC50 [8]: 0.224 nM
IC50 [9]: 5.48 nM
IC50 [10]: 0.395 nM
IC50 [11]: 0.271 nM
IC50 (DBTRG-05MG, neural tissue cancer, screening #2): 0.087 nM
IC50 (DLD-1, colorectal cancer, screening #1): 3.95 nM
IC50 (DLD-1_BRCA2 (−/−), colorectal cancer, screening #1): 0.516 nM
IC50 (DU-4475, breast cancer (TNBC), screening #2): 0.079 nM
IC50 (DV-90, NSCLC, screening #1): 1.19 nM
IC50 (FTC-238, head and neck cancer, screening #1): 3.92 nM
IC50 (G-401, kidney cancer, screening #2): 0.068 nM
IC50 [12]: 0.173 nM
IC50 (GP2D, colorectal cancer, screening #1): 0.003 nM
IC50 (GSU, gastric cancer, screening #1): 0.454 nM
IC50 (H4, neural tissue cancer, screening #2): 0.007 nM
IC50 (HCC38, breast cancer (TNBC), screening #2): 0.08 nM
IC50 (HCC1187, breast cancer (TNBC), screening #2): 0.066 nM
IC50 (HCC1806, breast cancer (TNBC), screening #2): 0.05 nM
IC50 [13]: 0.647 nM
IC50 (HCT-15, colorectal cancer, screening #1): 0.129 nM
IC50 (HCT-116_ARID1A (Q456*/Q456*), colorectal cancer, screening #1): 10.5 nM
IC50 (HCT-116_KRAS (+/−), colorectal cancer, screening #1): 0.253 nM
IC50 (HCT-116_PIK3A (+/−)KO mt H1047R, colorectal cancer, screening #1): 1.25 nM
IC50 (HEC-108, endometrial cancer, screening #1): 1.48 nM
IC50 (HEC-265, endometrial cancer, screening #1): 0.021 nM
IC50 (HLE, liver cancer, screening #1): 8.36 nM
IC50 (HMC-1-8, breast cancer (TNBC), screening #2): 0.232 nM
IC50 (HRT-186, colorectal cancer, screening #1): 9.24 nM
IC50 (HT55, colorectal cancer, screening #1): 0.11 nM
IC50 (HT-115, colorectal cancer, screening #1): 0.107 nM
IC50 [14]: 0.167 nM
IC50 [15]: 160 nM
IC50 [16]: 0.019 nM
IC50 [17]: 0.223 nM
IC50 [18]: 33.6 nM
IC50 [19]: 0.596 nM
IC50 (JHUEM-2, endometrial cancer, screening #1): 0.165 nM
IC50 (KNS-81, neural tissue cancer, screening #2): 0.013 nM
Substance: TRAIL: natural DR5 ligand, recombinant human TRAIL/APO-2L
Max Inhibition [1]: 98.5%
Max Inhibition [2]: 39.4%
Max Inhibition [3]: 2.6%
Max Inhibition [4]: 99.1%
Max Inhibition [5]: 98.2%
Max Inhibition (A375, melanoma, screening #1): 47.1%
Max Inhibition [6]: 32.4%
Max Inhibition (BEN, NSCLC, screening #1): 8.1%
Max Inhibition (BxPC-3, pancreatic cancer, screening #1): 46.5%
Max Inhibition (CAKI-2, kidney cancer, screening #1): 5.7%
Max Inhibition (CAL-12T, NSCLC, screening #1): 11.9%
Max Inhibition [7]: 71.6%
Max Inhibition (CAPAN-2, pancreatic cancer, screening #1): 4.8%
Max Inhibition (CFPAC-1, pancreatic cancer, screening #1): 13.2%
Max Inhibition (COLO858, melanoma, screening #1): 12.6%
Max Inhibition (COLO-679, melanoma, screening #1): 24.9%
Max Inhibition (COLO-699, NSCLC, screening #1): 2.8%
Max Inhibition [8]: 80.9%
Max Inhibition (COLO-800, melanoma, screening #1): 33.5%
Max Inhibition (COLO-818, melanoma, screening #1): 7.8%
Max Inhibition (COLO-849, melanoma, screening #1): 17.6%
Max Inhibition [9]: 58.4%
Max Inhibition (COR-L105, NSCLC, screening #1): 35.7%
Max Inhibition [10]: 73.1%
Max Inhibition (COV504, ovary cancer, screening #1): 11.7%
Max Inhibition [11]: 74.9%
Max Inhibition (Calu-1, NSCLC, screening #1): 22.0%
Max Inhibition (DV-90, NSCLC, screening #1): 96.1%
Max Inhibition (EPLC-272H, NSCLC, screening #1): 51.7%
Max Inhibition [12]: 15.0%
IC50 (HCC70, breast cancer (TNBC), screening #2): 347 nM
Max Inhibition [13]: 28.5%
Max Inhibition (HLC-1, NSCLC, screening #1): 32.6%
Max Inhibition (HMCB, melanoma, screening #1): 1.0%
Max Inhibition (HOP-62, NSCLC, screening #1): 55.6%
Max Inhibition (HPAF-II, pancreatic cancer, screening #1): 13.3%
Max Inhibition [14]: 31.8%
Max Inhibition [15]: 10.6%
Max Inhibition [16]: 91.1%
Max Inhibition (Hs 936.T, melanoma, screening #1): 20.7%
Max Inhibition [17]: 88.4%
Max Inhibition (IGR-1, melanoma, screening #1): 23.3%
Max Inhibition (IGR-37, melanoma, screening #1): 18.0%
Max Inhibition (IGR-39, melanoma, screening #1): 20.1%
Max Inhibition (IPC-298, melanoma, screening #1): 5.7%
Max Inhibition [18]: 11.5%
Max Inhibition (JHOC-5, ovary cancer, screening #1): 18.4%
Max Inhibition [19]: 58.1%
Max Inhibition (JHOM-2B, ovary cancer, screening #1): 21.7%
Max Inhibition (JHOS-4, ovary cancer, screening #1): 12.5%
Max Inhibition (KLM-1, pancreatic cancer, screening #1): 12.7%
Max Inhibition (KP-2, pancreatic cancer, screening #1): 3.9%
Max Inhibition (KP-3, pancreatic cancer, screening #1): 23.5%
Max Inhibition (KP-4, pancreatic cancer, screening #1): 23.6%
